Measured values taken from ChEMBL document CHEMBL3797159, “The discovery and the structural basis of an imidazo[4,5-b]pyridine-based p21-activated kinase 4 inhibitor” (Bioorg Med Chem Lett, 2016).
Active and inactive are the calls of the source. The rule behind the calls is not given here.

Tests used:
[1] = target: T1, Serine/threonine-protein kinase PAK 4 (Homo sapiens, UniProt O96013); experiment: Binding affinity to recombinant human N-terminal His6-tagged PAK4 kinase domain (300 to 591 residues) expressed in Escherichia coli BL21(DE3) cells at 50 uM by circular dichroism analysis
Target sequence in this assay (O96013 whole entry, looked up, the tested form may be a part): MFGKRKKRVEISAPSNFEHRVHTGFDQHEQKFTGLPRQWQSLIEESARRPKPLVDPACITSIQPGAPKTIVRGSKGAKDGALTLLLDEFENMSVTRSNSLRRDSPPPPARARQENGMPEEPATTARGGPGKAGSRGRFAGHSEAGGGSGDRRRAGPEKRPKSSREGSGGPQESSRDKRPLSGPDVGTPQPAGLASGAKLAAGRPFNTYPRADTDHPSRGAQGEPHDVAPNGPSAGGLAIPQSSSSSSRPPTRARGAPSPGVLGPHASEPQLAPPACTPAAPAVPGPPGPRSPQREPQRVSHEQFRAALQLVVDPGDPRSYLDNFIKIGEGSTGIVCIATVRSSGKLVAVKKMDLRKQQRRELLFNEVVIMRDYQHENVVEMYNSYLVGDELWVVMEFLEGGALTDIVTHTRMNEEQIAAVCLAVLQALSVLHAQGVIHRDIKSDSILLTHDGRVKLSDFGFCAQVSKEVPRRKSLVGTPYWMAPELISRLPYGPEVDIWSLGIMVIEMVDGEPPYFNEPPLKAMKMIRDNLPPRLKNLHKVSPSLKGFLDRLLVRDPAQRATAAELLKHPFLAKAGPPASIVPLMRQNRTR

[2] = target: T1, Serine/threonine-protein kinase PAK 4; experiment: Inhibition of human PAK4 using myelin basic protein as substrate incubated for 40 mins by scintillation counting method in presence of gamma[33P]ATP
Target sequence in this assay (O96013 whole entry, the tested form may be a part): as the sequence (O96013 whole entry, looked up, the tested form may be a part) above

[3] = Solubility of compound; type: physicochemical
[4] = target: Aurora kinase B (Homo sapiens) (UniProt Q96GD4); experiment: Inhibition of human recombinant Aurora-B expressed in sf9 cells using kemptide as substrate by radiometric assay in presence of gamma[32P]ATP
[5] = target: T2, Aurora kinase C (Homo sapiens) (UniProt Q9UQB9); experiment: Inhibition of human Aurora-C by radiometric assay
T2 sequence (whole entry): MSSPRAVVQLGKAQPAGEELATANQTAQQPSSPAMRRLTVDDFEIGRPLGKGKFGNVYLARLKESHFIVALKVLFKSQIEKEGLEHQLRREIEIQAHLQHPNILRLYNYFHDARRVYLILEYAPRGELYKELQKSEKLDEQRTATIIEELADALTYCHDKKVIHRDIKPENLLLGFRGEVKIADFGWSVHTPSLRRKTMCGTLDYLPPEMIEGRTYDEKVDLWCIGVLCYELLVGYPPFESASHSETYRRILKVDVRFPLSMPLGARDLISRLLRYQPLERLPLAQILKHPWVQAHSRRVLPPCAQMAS

[6] = target: CDK4/Cyclin D3 (Homo sapiens) (UniProt P11802+P30281); experiment: Inhibition of human recombinant CDK4/Cyclin D3 expressed in sf21 cells using Rb (773 to 928 residues) as substrate by radiometric assay in presence of gamma[32P]ATP
[7] = target: DNA-dependent protein kinase catalytic subunit (Homo sapiens) (UniProt P78527); experiment: Inhibition of human DNA-PK by radiometric assay
[8] = target: T3, Dual specificity tyrosine-phosphorylation-regulated kinase 2 (Homo sapiens) (UniProt Q92630); experiment: Inhibition of human DYRK2 by radiometric assay
T3 sequence (whole entry): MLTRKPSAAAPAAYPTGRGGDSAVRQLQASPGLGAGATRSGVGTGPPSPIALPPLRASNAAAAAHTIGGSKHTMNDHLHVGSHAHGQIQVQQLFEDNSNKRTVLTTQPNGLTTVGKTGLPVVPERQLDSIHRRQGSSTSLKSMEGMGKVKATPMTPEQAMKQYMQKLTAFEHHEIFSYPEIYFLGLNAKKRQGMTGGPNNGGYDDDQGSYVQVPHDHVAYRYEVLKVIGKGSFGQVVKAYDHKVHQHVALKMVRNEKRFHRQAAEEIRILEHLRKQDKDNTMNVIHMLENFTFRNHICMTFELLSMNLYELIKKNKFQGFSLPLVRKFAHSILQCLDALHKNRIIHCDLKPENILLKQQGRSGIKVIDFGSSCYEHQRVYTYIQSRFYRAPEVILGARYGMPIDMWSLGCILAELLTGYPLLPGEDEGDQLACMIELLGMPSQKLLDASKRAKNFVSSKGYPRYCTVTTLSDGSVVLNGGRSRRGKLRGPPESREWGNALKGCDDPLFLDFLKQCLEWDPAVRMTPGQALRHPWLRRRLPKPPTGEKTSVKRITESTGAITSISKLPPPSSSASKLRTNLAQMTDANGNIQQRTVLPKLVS

[9] = target: T1, Serine/threonine-protein kinase PAK 4; details: 50 uM
Target sequence in this assay (O96013 whole entry, looked up, the tested form may be a part): as the sequence (O96013 whole entry, looked up, the tested form may be a part) above
Description: Binding affinity to PAK4 (unknown origin) assessed as change in melting temperature at 50 uM by circular dichroism analysis

Sequence of DNA-dependent protein kinase catalytic subunit (Homo sapiens) (P78527 whole entry): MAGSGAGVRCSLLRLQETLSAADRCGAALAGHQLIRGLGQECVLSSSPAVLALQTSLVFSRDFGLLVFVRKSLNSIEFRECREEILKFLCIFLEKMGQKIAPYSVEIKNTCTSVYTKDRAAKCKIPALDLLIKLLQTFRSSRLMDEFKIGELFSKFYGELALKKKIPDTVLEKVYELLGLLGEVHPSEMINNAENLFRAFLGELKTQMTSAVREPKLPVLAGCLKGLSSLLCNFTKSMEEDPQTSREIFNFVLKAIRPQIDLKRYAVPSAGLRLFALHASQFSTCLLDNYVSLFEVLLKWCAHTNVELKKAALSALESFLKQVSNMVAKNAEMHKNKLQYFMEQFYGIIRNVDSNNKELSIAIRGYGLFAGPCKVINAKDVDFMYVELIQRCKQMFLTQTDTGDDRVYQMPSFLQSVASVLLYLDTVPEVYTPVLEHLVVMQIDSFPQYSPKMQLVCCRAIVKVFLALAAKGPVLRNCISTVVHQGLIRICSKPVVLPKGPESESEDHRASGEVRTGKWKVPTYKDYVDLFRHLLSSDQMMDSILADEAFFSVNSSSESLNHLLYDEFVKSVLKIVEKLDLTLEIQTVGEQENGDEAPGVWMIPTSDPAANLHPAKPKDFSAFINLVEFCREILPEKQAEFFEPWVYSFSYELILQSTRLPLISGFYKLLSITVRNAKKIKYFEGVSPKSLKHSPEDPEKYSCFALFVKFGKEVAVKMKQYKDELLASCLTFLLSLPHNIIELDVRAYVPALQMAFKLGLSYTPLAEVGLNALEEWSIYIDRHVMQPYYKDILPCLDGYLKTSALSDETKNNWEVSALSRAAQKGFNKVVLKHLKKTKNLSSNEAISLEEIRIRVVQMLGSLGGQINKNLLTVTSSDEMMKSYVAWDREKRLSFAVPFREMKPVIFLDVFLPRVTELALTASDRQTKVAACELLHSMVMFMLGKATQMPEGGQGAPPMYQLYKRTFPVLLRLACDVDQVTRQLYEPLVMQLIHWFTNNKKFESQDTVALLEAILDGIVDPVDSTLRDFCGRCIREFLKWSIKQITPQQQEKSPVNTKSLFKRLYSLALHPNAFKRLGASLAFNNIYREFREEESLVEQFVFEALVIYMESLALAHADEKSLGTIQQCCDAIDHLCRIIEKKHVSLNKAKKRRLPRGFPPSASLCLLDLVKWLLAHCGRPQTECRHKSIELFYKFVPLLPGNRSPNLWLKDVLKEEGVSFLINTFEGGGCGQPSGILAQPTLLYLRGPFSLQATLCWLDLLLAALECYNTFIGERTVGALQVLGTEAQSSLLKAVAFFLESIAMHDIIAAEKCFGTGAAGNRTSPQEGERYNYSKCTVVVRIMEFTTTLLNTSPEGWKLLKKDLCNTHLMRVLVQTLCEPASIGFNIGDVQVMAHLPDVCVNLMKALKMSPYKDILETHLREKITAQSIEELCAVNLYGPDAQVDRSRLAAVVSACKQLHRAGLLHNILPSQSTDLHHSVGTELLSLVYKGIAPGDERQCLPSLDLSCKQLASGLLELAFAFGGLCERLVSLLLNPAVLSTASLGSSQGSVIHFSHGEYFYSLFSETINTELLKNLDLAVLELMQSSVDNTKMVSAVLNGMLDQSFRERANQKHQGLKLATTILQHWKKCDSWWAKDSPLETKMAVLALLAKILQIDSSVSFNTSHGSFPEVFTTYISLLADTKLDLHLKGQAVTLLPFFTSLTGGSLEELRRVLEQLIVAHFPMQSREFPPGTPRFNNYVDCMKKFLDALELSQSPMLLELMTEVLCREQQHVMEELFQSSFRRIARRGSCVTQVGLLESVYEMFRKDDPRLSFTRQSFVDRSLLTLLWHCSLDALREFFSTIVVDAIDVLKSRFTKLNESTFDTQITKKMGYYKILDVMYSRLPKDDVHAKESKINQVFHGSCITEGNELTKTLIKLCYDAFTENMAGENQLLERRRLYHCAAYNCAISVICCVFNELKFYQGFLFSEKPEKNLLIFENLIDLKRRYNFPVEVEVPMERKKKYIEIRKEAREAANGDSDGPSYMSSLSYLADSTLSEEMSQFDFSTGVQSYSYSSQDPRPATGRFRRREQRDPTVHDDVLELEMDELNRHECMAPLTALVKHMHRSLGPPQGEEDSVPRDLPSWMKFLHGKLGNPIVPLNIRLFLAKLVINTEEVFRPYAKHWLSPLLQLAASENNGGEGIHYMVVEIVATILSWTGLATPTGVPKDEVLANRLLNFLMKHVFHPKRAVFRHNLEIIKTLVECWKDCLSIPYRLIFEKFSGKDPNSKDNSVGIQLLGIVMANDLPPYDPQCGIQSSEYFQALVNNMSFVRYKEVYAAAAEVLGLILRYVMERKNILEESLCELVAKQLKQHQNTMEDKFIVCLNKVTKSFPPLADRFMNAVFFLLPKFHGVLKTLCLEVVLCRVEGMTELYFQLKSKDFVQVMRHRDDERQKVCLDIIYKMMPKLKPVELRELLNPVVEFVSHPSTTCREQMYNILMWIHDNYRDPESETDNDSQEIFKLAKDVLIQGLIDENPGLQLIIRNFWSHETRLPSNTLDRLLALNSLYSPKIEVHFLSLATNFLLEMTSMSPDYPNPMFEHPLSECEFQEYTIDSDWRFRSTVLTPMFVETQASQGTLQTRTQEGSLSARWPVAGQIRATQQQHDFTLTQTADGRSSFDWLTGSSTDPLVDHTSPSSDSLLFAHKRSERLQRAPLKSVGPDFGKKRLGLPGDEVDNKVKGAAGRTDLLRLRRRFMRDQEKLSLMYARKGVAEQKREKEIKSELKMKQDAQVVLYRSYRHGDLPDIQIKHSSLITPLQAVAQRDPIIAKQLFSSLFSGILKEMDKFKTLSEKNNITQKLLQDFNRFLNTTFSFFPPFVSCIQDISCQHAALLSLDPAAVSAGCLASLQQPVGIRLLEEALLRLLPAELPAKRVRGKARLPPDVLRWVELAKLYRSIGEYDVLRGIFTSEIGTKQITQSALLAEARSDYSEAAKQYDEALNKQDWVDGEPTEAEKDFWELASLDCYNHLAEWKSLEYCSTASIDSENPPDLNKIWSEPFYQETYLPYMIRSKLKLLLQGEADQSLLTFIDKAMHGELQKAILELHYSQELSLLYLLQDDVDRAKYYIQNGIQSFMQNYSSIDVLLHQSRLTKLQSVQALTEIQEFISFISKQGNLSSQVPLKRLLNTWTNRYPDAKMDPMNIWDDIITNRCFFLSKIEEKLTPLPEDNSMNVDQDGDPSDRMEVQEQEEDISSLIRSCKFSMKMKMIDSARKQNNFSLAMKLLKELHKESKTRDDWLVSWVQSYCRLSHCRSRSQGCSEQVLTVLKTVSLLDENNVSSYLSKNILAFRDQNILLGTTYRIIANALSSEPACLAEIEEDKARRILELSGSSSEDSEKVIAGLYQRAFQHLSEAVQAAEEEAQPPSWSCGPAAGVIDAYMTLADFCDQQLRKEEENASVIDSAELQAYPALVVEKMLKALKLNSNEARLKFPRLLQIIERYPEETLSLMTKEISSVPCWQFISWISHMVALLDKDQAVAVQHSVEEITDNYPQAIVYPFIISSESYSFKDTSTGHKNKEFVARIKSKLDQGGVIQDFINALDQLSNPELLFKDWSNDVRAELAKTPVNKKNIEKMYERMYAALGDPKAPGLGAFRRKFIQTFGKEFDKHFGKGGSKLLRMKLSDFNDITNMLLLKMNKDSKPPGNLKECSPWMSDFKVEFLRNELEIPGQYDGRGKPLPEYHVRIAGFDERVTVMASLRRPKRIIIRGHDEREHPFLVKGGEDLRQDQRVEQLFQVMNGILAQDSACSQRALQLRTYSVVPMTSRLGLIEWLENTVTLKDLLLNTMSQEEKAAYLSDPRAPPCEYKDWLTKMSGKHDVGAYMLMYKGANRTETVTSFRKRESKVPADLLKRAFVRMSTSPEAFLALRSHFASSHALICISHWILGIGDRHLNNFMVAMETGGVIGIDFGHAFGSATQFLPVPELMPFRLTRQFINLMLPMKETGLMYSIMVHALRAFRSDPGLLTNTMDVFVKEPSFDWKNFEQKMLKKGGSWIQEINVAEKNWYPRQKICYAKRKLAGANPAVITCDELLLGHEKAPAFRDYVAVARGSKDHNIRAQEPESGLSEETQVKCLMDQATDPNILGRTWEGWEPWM
Sequence of Aurora kinase B (Homo sapiens) (Q96GD4 whole entry): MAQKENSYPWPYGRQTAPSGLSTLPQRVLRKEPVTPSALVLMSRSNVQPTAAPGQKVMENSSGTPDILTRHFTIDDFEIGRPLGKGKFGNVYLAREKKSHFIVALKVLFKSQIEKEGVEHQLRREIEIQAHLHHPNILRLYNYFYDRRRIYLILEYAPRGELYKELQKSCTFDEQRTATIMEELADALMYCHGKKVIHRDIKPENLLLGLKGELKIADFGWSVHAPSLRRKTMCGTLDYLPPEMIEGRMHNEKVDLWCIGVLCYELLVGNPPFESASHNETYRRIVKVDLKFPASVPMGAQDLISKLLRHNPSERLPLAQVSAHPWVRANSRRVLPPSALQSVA

| ΔTm [1] [°C] | IC50 [2] [µM] | solubility [3] [µM] | inhibition [4] | inhibition [5] | inhibition [6] | inhibition [7] | inhibition [8] | Tm [9] [°C] | Compound |
| --- | --- | --- | --- | --- | --- | --- | --- | --- | --- |
| 16 |  |  |  |  |  |  |  |  | Cc1nc(Nc2n[nH]c3c2CN(C(=O)N[C@H](CN(C)C)c2ccccc2)C3(C)C)c2sccc2n1 |
| 6 |  |  |  |  |  |  |  |  | COc1nc(NCCc2c[nH]c3ccccc23)nc(Nc2ccc3[nH]ncc3c2)n1 |
|  | 8.7 | < 100 | Active | Active | inactive | inactive | inactive | 48 | CC(C)c1nn(C)cc1-c1nc2cc(Br)cnc2[nH]1 |
